From patent publication US20040009534A1, “Protein analysis” (DYAX CORPORATION, priority 2002, published 2004)
pKd: −log10 of the molar value. Like-named read-outs stand apart in the source and are kept apart here.

Columns and labels:
HSA [1] = biological target: T1, HSA (Homo sapiens, UniProt P02768); test: HSA binding test of analytical peptide-Sepharose affinity columns; conditions: 1 mg HSA injection; for Total Capacity: 0.35 ml column
T1 construct: SwissProt entry: P02768 and/or the following mature
Method: The immobilization reaction was initiated by the addition of diisopropylethylamine to 2% (vol/vol). After 4 hours of slow mixing on a shaker table at room temperature, the reaction was quenched by the addition of an equal volume of 0.5 M hydroxylamine, pH 8, in water. For those peptides with ivDde-protected internal lysines, the hydroxylamine quench treatment also removed the ivDde-protecting group. To allow for complete protecting group removal, the quenched reaction was allowed to incubate overnight at room temperature. Once quenched and deprotected, the immobilized peptide-Sepharose resin was washed at least 3 times with water to remove solvent and unbound peptide. Non-specifically bound peptide was eluted off the resin by washing the resin at least three times in 30 mM phosphoric acid, pH 2. Since the NHS-Sepharose resin surface becomes negatively charged after hydrolysis, an acidic wash neutralizes the surface and removes any peptides bound non-covalently to the surface via electrostatic interactions. After washing, the resin was resuspended in water as a 50% v/v mixture. A 50 μl aliquot was used to determine the ligand density on the resin by quantitative amino acid analysis. Finally, the resin slurry was packed into 0.35 ml OMNIFIT™ glass columns (3 mm×50 mm) for analytical testing.
Each peptide was immobilized at high density on NHS-Sepharose resin using the procedure outlined above. The peptides were immobilized via a C-terminal lysine. […] Each column was tested for HSA binding (1 mg injection) in binding buffer—3 mM sodium phosphate, 0.1% Tween-20 detergent, pH 6.2.
One milliliter of albumin solution was passed through each column (0.35 ml) previously equilibrated in equilibration buffer. The columns were washed with the same equilibration buffer and then eluted with 100 mM Tris, pH 9.1 (flow rate, 0.5 ml/min for all steps). The column chromatography was carried out using a BIO-RAD BIOLOGIC™ monitoring system (Hercules, Calif.) throughout this testing with absorbance monitoring at 280 nm.

chicken ovalbumin = biological target: T2, chicken ovalbumin (Gallus gallus, UniProt P01012); test: Dissociation constants (KD) against a panel of albumins, negative control; type: binding; conditions: both sets of buffers
T2 sequence (P01012 1-386): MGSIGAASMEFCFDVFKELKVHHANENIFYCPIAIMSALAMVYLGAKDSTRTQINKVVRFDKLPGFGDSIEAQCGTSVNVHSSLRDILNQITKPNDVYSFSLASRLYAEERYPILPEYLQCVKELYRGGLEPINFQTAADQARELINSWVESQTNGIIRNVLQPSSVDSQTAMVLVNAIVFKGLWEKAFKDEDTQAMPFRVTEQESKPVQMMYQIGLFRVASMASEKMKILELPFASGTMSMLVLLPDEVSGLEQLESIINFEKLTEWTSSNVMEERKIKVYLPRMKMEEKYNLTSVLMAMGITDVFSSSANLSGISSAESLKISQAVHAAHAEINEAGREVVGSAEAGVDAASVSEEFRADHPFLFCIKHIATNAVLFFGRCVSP
Excerpt: (§1) The binding properties of a ligand that binds a serum protein can be readily assessed using various assay formats. For example, the binding property of a ligand can be measured in solution by fluorescence anisotropy, which provides a convenient and accurate method of determining a dissociation constant (KD) of a binding moiety for a serum albumin from one or more different species. In one such procedure, a binding moiety described herein is labeled with fluorescein. The fluorescein-labeled binding moiety may then be mixed in wells of a multi-well assay plate with various concentrations of a particular species of serum albumin. Fluorescence anisotropy measurements are then carried out using a fluorescence polarization plate reader. The binding interaction between a serum protein and a non-covalently associated compound can be similarly characterized. Other solution measures for studying binding properties include fluorescence resonance energy transfer (FRET) and NMR.
Chicken ovalbumin is not homologous to HSA as determined by sequence alignment analysis.

Goat albumin = test: Dissociation constants (KD) against a panel of albumins; type: binding
Excerpt: as §1

human IgG1 = conditions: read-out: dissociation constants (KD), cited from earlier work
Fc protein = conditions: from buffer solution and tobacco extract; cited from earlier work
HSA [2] = biological target: T1, HSA; test: Dissociation constants (KD) against a panel of albumins; type: binding; conditions: phosphate, pH 6.2, O M NaCl
Excerpt: as §1

[3] = biological target: murine serum albumin (MSA) (Mus musculus, UniProt P07724); test: as above; type: binding
Excerpt: as §1

human IgG3 = conditions: human IgG3, pH 5.7; read-out: dissociation constants (KD); cited from earlier work
[4] = fraction: Elution (100 mM Tris, pH 9.1)

Chain of human IgG1 (P01857 1-330 isoform P01857-1): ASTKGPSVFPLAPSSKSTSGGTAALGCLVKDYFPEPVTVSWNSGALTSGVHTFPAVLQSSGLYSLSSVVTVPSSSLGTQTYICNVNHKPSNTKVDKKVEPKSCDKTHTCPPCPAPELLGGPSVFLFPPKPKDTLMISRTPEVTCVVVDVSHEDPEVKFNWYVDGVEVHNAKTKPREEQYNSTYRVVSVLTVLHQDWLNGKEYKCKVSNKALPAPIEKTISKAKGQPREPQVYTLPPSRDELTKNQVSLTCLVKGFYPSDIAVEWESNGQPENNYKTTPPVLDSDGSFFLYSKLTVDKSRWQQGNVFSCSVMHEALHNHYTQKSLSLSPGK
T1 sequence (P02768 25-609): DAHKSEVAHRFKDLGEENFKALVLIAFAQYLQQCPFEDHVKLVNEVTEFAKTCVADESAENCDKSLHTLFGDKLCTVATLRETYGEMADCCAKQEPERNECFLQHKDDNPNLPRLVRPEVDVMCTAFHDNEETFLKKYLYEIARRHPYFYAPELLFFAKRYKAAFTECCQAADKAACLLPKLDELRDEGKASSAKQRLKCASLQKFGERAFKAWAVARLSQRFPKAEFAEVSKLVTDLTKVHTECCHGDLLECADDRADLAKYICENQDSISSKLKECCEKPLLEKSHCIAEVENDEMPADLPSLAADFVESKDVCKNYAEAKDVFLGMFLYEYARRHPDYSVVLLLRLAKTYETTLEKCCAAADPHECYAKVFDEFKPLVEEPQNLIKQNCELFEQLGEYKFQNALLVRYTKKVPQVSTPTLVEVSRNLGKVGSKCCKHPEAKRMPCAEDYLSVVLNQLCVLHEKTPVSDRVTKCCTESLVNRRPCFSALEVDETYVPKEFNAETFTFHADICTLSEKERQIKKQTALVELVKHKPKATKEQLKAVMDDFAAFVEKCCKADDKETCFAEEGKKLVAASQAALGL
Chain of murine serum albumin (MSA) (P07724 25-608): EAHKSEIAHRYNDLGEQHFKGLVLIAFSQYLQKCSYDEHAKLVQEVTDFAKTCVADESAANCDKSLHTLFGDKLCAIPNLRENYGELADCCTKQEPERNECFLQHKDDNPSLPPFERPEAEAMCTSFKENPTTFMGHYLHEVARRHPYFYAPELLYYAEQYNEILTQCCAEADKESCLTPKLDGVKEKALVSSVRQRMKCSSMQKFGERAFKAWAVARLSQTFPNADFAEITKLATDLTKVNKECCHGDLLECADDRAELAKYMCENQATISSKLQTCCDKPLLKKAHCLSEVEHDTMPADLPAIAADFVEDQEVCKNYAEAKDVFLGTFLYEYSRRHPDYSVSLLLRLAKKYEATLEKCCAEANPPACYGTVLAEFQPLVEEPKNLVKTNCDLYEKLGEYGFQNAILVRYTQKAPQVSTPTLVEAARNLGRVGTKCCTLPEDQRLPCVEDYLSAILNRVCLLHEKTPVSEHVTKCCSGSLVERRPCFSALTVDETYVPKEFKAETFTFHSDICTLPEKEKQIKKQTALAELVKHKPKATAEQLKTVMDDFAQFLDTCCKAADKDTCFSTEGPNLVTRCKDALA
Chain of human IgG3 (P01860 1-377 isoform P01860-1): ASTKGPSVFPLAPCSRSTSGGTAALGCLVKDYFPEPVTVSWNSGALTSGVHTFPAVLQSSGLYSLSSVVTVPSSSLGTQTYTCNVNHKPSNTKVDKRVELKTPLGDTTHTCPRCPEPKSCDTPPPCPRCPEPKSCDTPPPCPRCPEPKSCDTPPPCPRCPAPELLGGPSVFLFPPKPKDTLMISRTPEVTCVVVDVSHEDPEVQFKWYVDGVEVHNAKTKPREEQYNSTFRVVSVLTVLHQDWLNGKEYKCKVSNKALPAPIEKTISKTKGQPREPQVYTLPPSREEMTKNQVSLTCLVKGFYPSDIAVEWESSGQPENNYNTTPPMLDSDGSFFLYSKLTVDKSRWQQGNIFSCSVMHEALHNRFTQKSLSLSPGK

CC[C@H](C)[C@@H]1NC(=O)[C@H](CCCNC(=N)N)NC(=O)[C@H](CC(=O)O)NC(=O)[C@@H](NC(=O)[C@H](Cc2ccccc2)NC(=O)[C@H](Cc2c[nH]c3ccccc23)NC(=O)[C@H](Cc2ccccc2)NC(=O)[C@H](CC(=O)O)NC(=O)CNC(=O)[C@@H](NC(=O)CNC(=O)[C@H](CCC(=O)O)NC(=O)[C@H](C)NC(C)=O)[C@@H](C)O)CSSC[C@@H](C(=O)N[C@@H](CCC(=O)O)C(=O)N[C@@H](Cc2ccccc2)C(=O)N[C@@H](CC(C)C)C(=O)N[C@@H](CC(=O)O)C(=O)N2CCC[C@H]2C(=O)N[C@@H](CCC(=O)O)C(=O)NCC(=O)NCC(=O)NCC(=O)N[C@@H](CCCCN)C(N)=O)NC(=O)[C@H](CC(C)C)NC(=O)[C@H](Cc2c[nH]cn2)NC(=O)[C@H](CCC(N)=O)NC(=O)[C@@H]2CCCN2C(=O)[C@H](Cc2ccc(O)cc2)NC(=O)[C@H](Cc2c[nH]c3ccccc23)NC(=O)[C@H](C)NC1=O [DX-236]
Total Capacity (HSA [1]): >2.7 mg/mL
μg HSA (HSA [1]; [4]): 947 µg
μg HSA (HSA [1]; fraction: Flow through, pH 6.2): 0 µg
binding to chicken ovalbumin (chicken ovalbumin): neither peptide showed any significant binding
pKd (Goat albumin; PBS, pH 7.4, […] NaCl): 4.64
pKd (Goat albumin; phosphate, pH 6.2, O M NaCl): 5.80

GDDHMCVYTTWGELIWCDNHEPGPEGGGK [DX249]
pKd (human IgG1; IgG1, pH 7.4): > 6.30
pKd (human IgG1; human IgG1, pH 5.7): > 7.00

GDRRACSRDWSGALVWCAGHEPGPEGGGK [DX253]
capture efficiency (quantitative binding of Fc protein) (Fc protein): > 90 % of total load

CC[C@H](C)[C@@H]1NC(=O)[C@H](Cc2c[nH]c3ccccc23)NC(=O)[C@H](CO)NC(=O)[C@H](Cc2ccccc2)NC(=O)[C@H](CCCCN)NC(=O)[C@@H](NC(=O)[C@H](CCSC)NC(=O)[C@H](CC(N)=O)NC(=O)[C@H](CCCNC(=N)N)NC(=O)[C@H](CC(=O)O)NC(=O)CNC(=O)[C@@H](NC(=O)CNC(=O)[C@H](CCC(=O)O)NC(=O)[C@H](C)NC(C)=O)[C@@H](C)O)CSSC[C@@H](C(=O)N[C@@H](C)C(=O)N[C@@H](CCCNC(=N)N)C(=O)N[C@@H](C)C(=O)N[C@@H](CC(=O)O)C(=O)N2CCC[C@H]2C(=O)N[C@@H](CCC(=O)O)C(=O)NCCCCCC(=O)N[C@@H](CCCCN)C(N)=O)NC(=O)[C@H](Cc2ccccc2)NC(=O)[C@H](C)NC(=O)[C@@H]2CCCN2C(=O)[C@H](CO)NC(=O)[C@H](CCCNC(=N)N)NC1=O [DX-321]
Total Capacity (HSA [1]): >1.1 mg/mL
μg HSA (HSA [1]; [4]): 370 µg
μg HSA (HSA [1]; fraction: Flow through, pH 6.2): 554 µg
binding to chicken ovalbumin (chicken ovalbumin): neither peptide showed any significant binding
KD (HSA [2]): submicromolar
pKd (Goat albumin; PBS, pH 7.4, […] NaCl): 4.08
pKd (Goat albumin; phosphate, pH 6.2, O M NaCl): 4.02
pKd ([3]; PBS, pH 7.4, 0.14 M NaCl): < 3.70
pKd ([3]; phosphate, pH 6.2, O M NaCl): < 3.70

GDDDHCYWFREWFNSECPHGEPGPEGGGK [DX252]
pKd (human IgG3): > 7.00

AGYYWCNYWGLCPDQGTPGPEGGGK [DX254]
pKd (human IgG1; IgG1, pH 7.4): > 5.70
pKd (human IgG1; human IgG1, pH 5.7): > 7.00
pKd (human IgG1; human IgG1, pH 9.3): > 6.00
